*1 amine or outer side, *2 acyl side, *3 side chain or, on linkers, in order; H or OH if unused. Where a SMILES comes first, the peptide text is derived from it. [ ]: non-standard residue; d: D form. X1 = O=C([C@@]1(O)C[C@@H](O)[C@H](N[*:1])C([C@@H](O)[C@@H](O)CO)O1)[*:2]; NMeW = CN[C@@H](Cc1c[nH]c2ccccc12)C(=O)O; Phe(3-Br) = N[C@@H](Cc1cccc(Br)c1)C(=O)O; Aad = N[C@@H](CCCC(=O)O)C(=O)O; Nle = CCCC[C@H](N)C(=O)O
Target: T1, CCK-B receptors (CHO-CCK) (Homo sapiens, UniProt P32239)
T1 construct: expressed in transfected cells; host or cells: CHO (CHO-CCK model cells)
T1 sequence (P32239 1-447): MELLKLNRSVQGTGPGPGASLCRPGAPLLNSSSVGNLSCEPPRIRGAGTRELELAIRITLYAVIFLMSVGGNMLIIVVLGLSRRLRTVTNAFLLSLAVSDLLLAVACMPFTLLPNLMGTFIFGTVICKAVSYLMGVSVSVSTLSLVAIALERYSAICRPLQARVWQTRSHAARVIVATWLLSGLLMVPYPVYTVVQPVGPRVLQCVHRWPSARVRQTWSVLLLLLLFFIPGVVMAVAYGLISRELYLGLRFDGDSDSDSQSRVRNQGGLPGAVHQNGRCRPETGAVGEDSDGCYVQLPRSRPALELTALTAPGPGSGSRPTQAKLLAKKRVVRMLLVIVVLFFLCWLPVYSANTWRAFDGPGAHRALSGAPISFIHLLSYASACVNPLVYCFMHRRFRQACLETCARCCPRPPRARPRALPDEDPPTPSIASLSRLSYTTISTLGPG
Test: Calcium flux (Fluo-8) agonist test on CHO-CCK model cells
Assay type: cell-based
Conditions: CHO-CCK cells, Fluo-8 calcium flux; 100% control = 20 nM CCK8
Experimental: • To detect changes in intracellular calcium ion concentration after the compound acts on model cells containing CCK-B receptors (CHO-CCK).
• 1. The compound was formulated to a 10 mM mother liquor with DMSO, and then diluted into a series of 9 concentrations with a 3-fold gradient to form a 1000× stock solution.
2.1 Agonist • The compound stock solution was subjected to 200-fold dilution with HHBS buffer to form a 5× working solution.
• 1. Plate CHO-CCK cells in a 96-well plate with media containing 1% FBS, 30,000 cells/well/100 μL, and incubate overnight at 37° C. • 2. Prepare 1×Fluo-8 analysis buffer: mix 9 mL of HHBS, 1 mL of 10× Pluronic F127 Plus and 20 μL of Fluo-8 thoroughly for later use. • 3. Add Fluo-8 dye working solution to the cell plate, 100 μL/well. First incubate in a 37° C. incubator for 30 min, and then take it out and incubate at room temperature in the dark for 30 min. • 4. In the process of incubating cells, the compounds to be detected were prepared with HHBS. • 5.
The agonism/antagonism EC50 of the compound can be obtained by plotting the fitting curve with the agonism/antagonism percentage as Y-axis and the concentration of the compound as X-axis.

SMILES	EC50 [µM]
CSCC[C@H](NC(=O)[C@H](N)Cc1c[nH]c2ccccc12)C(=O)N[C@@H](CC(=O)O)C(=O)N[C@@H](Cc1cccc(Br)c1)C(=O)N[C@H](C)C(N)=O [HT-290, D-Trp-Met-Asp-Phe(3-Br)-D-Ala-NH2] (H-[dW]MD[Phe(3-Br)][dA]-NH2)	6.68
CSCC[C@H](NC(=O)[C@H](Cc1c[nH]c2ccccc12)NC(=O)[C@@H](C)N)C(=O)N[C@@H](CC(=O)O)C(=O)N[C@@H](Cc1cccc(Br)c1)C(=O)N[C@H](C)C(N)=O [HT-292, D-Ala-Trp-Met-Asp-Phe(3-Br)-D-Ala-NH2] (H-[dA]WMD[Phe(3-Br)][dA]-NH2)	1.45
CSCC[C@@H]1NC(=O)[C@H](Cc2c[nH]c3ccccc23)NCCC(=O)CNC(=O)CNC(=O)CNC(=O)CNC(=O)[C@H](Cc2cccc(Br)c2)NC(=O)[C@H](CC(=O)O)NC1=O [HT-291, cyclo(Trp-Met-Asp-Phe(3-Br)-Gly-Gly-Gly-Gly)]	10.6

Same assay, conditions: CHO-CCK cells, compound alone; bound in μM

SMILES	EC50 [µM]
CSCC[C@H](NC(=O)[C@H](CC(=O)O)NC(=O)[C@H](Cc1ccccc1)NC(C)=O)C(=O)N[C@@H](Cc1c[nH]c2ccccc12)C(=O)O [HT-2, Ac-Phe-Asp-Met-Trp-COOH]	> 10
CSCC[C@@H](NC(=O)[C@@H](CC(=O)O)NC(=O)[C@H](N)Cc1ccccc1)C(=O)N[C@H](Cc1c[nH]c2ccccc12)C(=O)O [HT-7, D-Phe-D-Asp-D-Met-D-Trp-COOH] (H-[dF][dD][dM][dW]-OH)	> 10
CSCC[C@H](NC(=O)[C@@H](CC(=O)O)NC(=O)[C@H](Cc1ccccc1)NC(C)=O)C(=O)N[C@@H](Cc1c[nH]c2ccccc12)C(=O)O [HT-4, Ac-Phe-D-Asp-Met-Trp-NH2]	> 10

Same assay, conditions: compound at 1 nM, CHO-CCK cells

SMILES	% Act-Ave @ 1 nM [%]
CCCC[C@H](NC(=O)[C@H](Cc1c[nH]c2ccccc12)N(C)C(=O)[C@@H](N)CCC(=O)O)C(=O)N[C@@H](CCCC(=O)O)C(=O)N[C@@H](Cc1cccc(Br)c1)C(N)=O [HT-277, Glu-(N-Me-Trp)-Nle-Aa-Phe(3-Br)-NH2] (H-E[NMeW][Nle][Aad][Phe(3-Br)]-NH2)	−0.13
CCCC[C@H](NC(=O)[C@H](Cc1c[nH]c2ccccc12)N(C)C(=O)[C@@]1(O)C[C@@H](O)[C@H](NC(C)=O)C([C@@H](O)[C@@H](O)CO)O1)C(=O)N[C@@H](CC(=O)O)C(=O)N[C@@H](Cc1cccc(Br)c1)C(N)=O (stereo partly drawn) [HT-274, Sia-(N-Me-Trp)-Nle Asp-Phe(3-Br)-NH2] (Ac-[X1][NMeW][Nle]D[Phe(3-Br)]-NH2)	0.10
CC(=O)N[C@@H](CC(=O)O)C(=O)N[C@@H](Cc1ccccc1)C(N)=O [HT-284, Ac-Asp-Phe-NH2] (Ac-Asp-Phe-NH2)	0.01

Same assay, conditions: compound at 50 nM, CHO-CCK cells

SMILES	% Act-Ave @ 50 nM [%]
CCCC[C@H](NC(=O)[C@H](Cc1c[nH]c2ccccc12)N(C)C(=O)[C@@H](N)CCC(=O)O)C(=O)N[C@@H](CCCC(=O)O)C(=O)N[C@@H](Cc1cccc(Br)c1)C(N)=O [HT-277, Glu-(N-Me-Trp)-Nle-Aa-Phe(3-Br)-NH2] (H-E[NMeW][Nle][Aad][Phe(3-Br)]-NH2)	13.46
CCCC[C@H](NC(=O)[C@H](Cc1c[nH]c2ccccc12)N(C)C(=O)[C@@]1(O)C[C@@H](O)[C@H](NC(C)=O)C([C@@H](O)[C@@H](O)CO)O1)C(=O)N[C@@H](CC(=O)O)C(=O)N[C@@H](Cc1cccc(Br)c1)C(N)=O (stereo partly drawn) [HT-274, Sia-(N-Me-Trp)-Nle Asp-Phe(3-Br)-NH2] (Ac-[X1][NMeW][Nle]D[Phe(3-Br)]-NH2)	72.88
CC(=O)N[C@@H](CC(=O)O)C(=O)N[C@@H](Cc1ccccc1)C(N)=O [HT-284, Ac-Asp-Phe-NH2] (Ac-Asp-Phe-NH2)	0.09

Same assay, conditions: compound at 10 μM; percentage of signal of 20 nM CCK8 alone

SMILES	Agonistic Activity (%) at 10 μM [%]
C[S+]([O-])CC[C@H](NC(=O)[C@H](N)Cc1c[nH]c2ccccc12)C(=O)N[C@@H](CC(=O)O)C(=O)N[C@@H](Cc1ccc([N+](=O)[O-])cc1)C(N)=O (stereo partly drawn) [HT-50, D-Trp-Met(O)-Asp-Phe(4-NO2)-NH2]	11.85
C[S+]([O-])CC[C@H](NC(=O)[C@H](N)Cc1c[nH]c2ccccc12)C(=O)N[C@@H](CC(=O)OCCNc1cccc2c(O)cccc12)C(=O)N[C@@H](Cc1ccc(F)cc1)C(N)=O (stereo partly drawn) [HT-155, D-Trp-Met(O)-Asp(EDANS)-Phe(4-F)-NH2]	0.50
CS(=O)(=O)CC[C@H](NC(=O)[C@H](N)Cc1c[nH]c2ccccc12)C(=O)N[C@@H](CC(=O)O)C(=O)N[C@@H](Cc1ccccc1[N+](=O)[O-])C(N)=O [HT-58, D-Trp-Met(O2)-Asp-Phe(2-NO2)-NH2]	23.63
COC(=O)C[C@H](NC(=O)[C@H](CC[S+](C)[O-])NC(=O)[C@H](N)Cc1c[nH]c2ccccc12)C(=O)N[C@@H](Cc1ccccc1[N+](=O)[O-])C(N)=O (stereo partly drawn) [HT-109, D-Trp-Met(O)-Asp(Ome)-Phe(2-NO2)-NH2]	3.33
COC(=O)C[C@H](NC(=O)[C@H](CC[S+](C)[O-])NC(=O)[C@H](N)Cc1c[nH]c2ccccc12)C(=O)N[C@@H](Cc1ccccc1F)C(N)=O (stereo partly drawn) [HT-110, D-Trp-Met(O)-Asp(Ome)-Phe(2-F)-NH2]	1.36
C[S+]([O-])CC[C@H](NC(=O)[C@H](N)Cc1c[nH]c2ccccc12)C(=O)N[C@@H](CC(=O)OCCNc1cccc2c(O)cccc12)C(=O)N[C@@H](Cc1ccc(N=[N+]=[N-])cc1)C(N)=O (stereo partly drawn) [HT-150, D-Trp-Met(O)-Asp(EDANS)-Phe(4-N3)-NH2]	0.81
COC(=O)C[C@H](NC(=O)[C@H](CCSC)NC(=O)[C@H](N)Cc1c[nH]c2ccccc12)C(=O)N[C@@H](Cc1ccccc1)C(N)=O [HT-18, D-Trp-Met-Asp(OMe)-Phe-NH2]	7.59
COC(=O)C[C@H](NC(=O)[C@H](CC[S+](C)[O-])NC(=O)[C@H](N)Cc1c[nH]c2ccccc12)C(=O)N[C@@H](Cc1ccc(C#N)cc1)C(N)=O (stereo partly drawn) [HT-117, D-Trp-Met(O)-Asp(Ome)-Phe(4-CN)-NH2]	9.81
COC(=O)C[C@H](NC(=O)[C@H](CCS(C)(=O)=O)NC(=O)[C@H](N)Cc1c[nH]c2ccccc12)C(=O)N[C@@H](Cc1ccc(C)cc1)C(N)=O [HT-132, D-Trp-Met(O2)-Asp(Ome)-Phe(4-Me)-NH2]	−14.42
COC(=O)C[C@H](NC(=O)[C@H](CCS(C)(=O)=O)NC(=O)[C@H](N)Cc1c[nH]c2ccccc12)C(=O)N[C@@H](Cc1ccccc1F)C(N)=O [HT-127, D-Trp-Met(O2)-Asp(Ome)-Phe(2-F)-NH2]	1.79
COC(=O)C[C@H](NC(=O)[C@H](CCS(C)(=O)=O)NC(=O)[C@H](N)Cc1c[nH]c2ccccc12)C(=O)N[C@@H](Cc1ccc([N+](=O)[O-])cc1)C(N)=O [HT-135, D-Trp-Met(O2)-Asp(Ome)-Phe(4-NO2)-NH2]	11.52
C[S+]([O-])CC[C@H](NC(=O)[C@H](N)Cc1c[nH]c2ccccc12)C(=O)N[C@@H](CC(=O)O)C(=O)N[C@@H](Cc1ccc(N=[N+]=[N-])cc1)C(N)=O (stereo partly drawn) [HT-48, D-Trp-Met(O)-Asp-Phe(4-N3)-NH2]	17.23
C[S+]([O-])CC[C@H](NC(=O)[C@H](N)Cc1c[nH]c2ccccc12)C(=O)N[C@@H](CC(=O)OCCNc1cccc2c(O)cccc12)C(=O)N[C@@H](Cc1cc(F)c(F)c(F)c1)C(N)=O (stereo partly drawn) [HT-159, D-Trp-Met(O)-Asp(EDANS)-Phe(3,4,5-TriF)-NH2]	4.93
COC(=O)C[C@H](NC(=O)[C@H](CC[S+](C)[O-])NC(=O)[C@H](N)Cc1c[nH]c2ccccc12)C(=O)N[C@@H](Cc1ccc(Cl)cc1)C(N)=O (stereo partly drawn) [HT-120, D-Trp-Met(O)-Asp(Ome)-Phe(4-Cl)-NH2]	−1.00
COC(=O)C[C@H](NC(=O)[C@H](CCS(C)(=O)=O)NC(=O)[C@H](N)Cc1c[nH]c2ccccc12)C(=O)N[C@@H](Cc1ccc(I)cc1)C(N)=O [HT-139, D-Trp-Met(O2)-Asp(Ome)-Phe(4-I)-NH2]	13.02
COC(=O)C[C@H](NC(=O)[C@H](CCSC)NC(=O)[C@H](N)Cc1c[nH]c2ccccc12)C(=O)N[C@@H](Cc1ccc(C#N)cc1)C(N)=O [HT-83, D-Trp-Met-Asp(Ome)-Phe(4-CN)-NH2]	1.91
C[S+]([O-])CC[C@H](NC(=O)[C@H](N)Cc1c[nH]c2ccccc12)C(=O)N[C@@H](CC(=O)O)C(=O)N[C@@H](Cc1ccc(Br)cc1)C(N)=O (stereo partly drawn) [HT-51, D-Trp-Met(O)-Asp-Phe(4-Br)-NH2]	17.18
COC(=O)C[C@H](NC(=O)[C@H](CC[S+](C)[O-])NC(=O)[C@H](N)Cc1c[nH]c2ccccc12)C(=O)N[C@@H](Cc1ccc(F)cc1)C(N)=O (stereo partly drawn) [HT-121, D-Trp-Met(O)-Asp(Ome)-Phe(4-F)-NH2]	10.99
C[S+]([O-])CC[C@H](NC(=O)[C@H](N)Cc1c[nH]c2ccccc12)C(=O)N[C@@H](CC(=O)O)C(=O)N[C@@H](Cc1ccccc1[N+](=O)[O-])C(N)=O (stereo partly drawn) [HT-41, D-Trp-Met(O)-Asp-Phe(2-NO2)-NH2]	−11.17
Cc1ccc(C[C@H](NC(=O)[C@H](CC(=O)O)NC(=O)[C@H](CCS(C)(=O)=O)NC(=O)[C@H](N)Cc2c[nH]c3ccccc23)C(N)=O)cc1 [HT-64, D-Trp-Met(O2)-Asp-Phe(4-Me)-NH2]	17.43
COC(=O)C[C@H](NC(=O)[C@H](CCSC)NC(=O)[C@H](N)Cc1c[nH]c2ccccc12)C(=O)N[C@@H](Cc1ccccc1[N+](=O)[O-])C(N)=O [HT-75, D-Trp-Met-Asp(Ome)-Phe(2-NO2)-NH2]	−0.20

Reference: US20240415918A1, “Polypeptide and its use as a CCK receptor agonist/antagonist” (Centre for Regenerative Medicine & Health, Hong Kong …, priority 2021, published 2024)
